The values below are quoted from earlier work in patent US6706282B1, “Controlled delivery of phenoxyethyl-substituted 1,2,4-triazolones” (priority 1998, dated 2004).

As usually defined, the half-life is how long it takes for the measured level to halve.

Counter-ions that a name gives are not always drawn.

As to `CCc1nn(CCCN2CCN(c3cccc(Cl)c3)CC2)c(=O)n1CCOc1ccccc1` [nefazodone hydrochloride, 2-[3-[4-(3-chlorophenyl)-piperazinyl]propyl]-5-ethyl-4-(2-phenoxyethyl)-2H-1,2,4-triazol-3(4H)-one hydrochloride], the “time of peak plasma concentrations after dosing” value (conventional immediate release formulations) was “about one”. The half-life (in vivo) was 2 to 4 h.
